Patent US9738902B2, “Modified PYR/PYL receptors activated by ligands” (priority 2013, dated 2017)

What was measured:
Test in all cases: Y2H Pocket Library Screen (HAB1, X-gal)
Format in all cases: cell-based
[1] = target: T1, PYR1 K59R F159T (Arabidopsis thaliana, UniProt O49686, F159T/K59R)
T1 construct: expressed in transfected cells; host or cells: S. cerevisiae Y190
Outline: (§1)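 Mutant PYR1 variants are screened in yeast two-hybrid against HAB1, with 100 μM compound in –Leu/–Trp dextrose agar; responsiveness is judged by X-gal staining after 2 days at 30° C.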

[2] = target: T2, PYR1 K59R S122G (Arabidopsis thaliana, UniProt O49686, K59R/S122G)
T2 construct: expressed in transfected cells; host or cells: S. cerevisiae Y190 two-hybrid reporter strain
Outline: as §1

[3] = target: T3, PYR1 K59R F159C (Arabidopsis thaliana, UniProt O49686, F159C/K59R)
T3 construct: expressed in transfected cells; host or cells: S. cerevisiae Y190 two-hybrid reporter strain
T3 sequence (Q9CAJ0 23-511): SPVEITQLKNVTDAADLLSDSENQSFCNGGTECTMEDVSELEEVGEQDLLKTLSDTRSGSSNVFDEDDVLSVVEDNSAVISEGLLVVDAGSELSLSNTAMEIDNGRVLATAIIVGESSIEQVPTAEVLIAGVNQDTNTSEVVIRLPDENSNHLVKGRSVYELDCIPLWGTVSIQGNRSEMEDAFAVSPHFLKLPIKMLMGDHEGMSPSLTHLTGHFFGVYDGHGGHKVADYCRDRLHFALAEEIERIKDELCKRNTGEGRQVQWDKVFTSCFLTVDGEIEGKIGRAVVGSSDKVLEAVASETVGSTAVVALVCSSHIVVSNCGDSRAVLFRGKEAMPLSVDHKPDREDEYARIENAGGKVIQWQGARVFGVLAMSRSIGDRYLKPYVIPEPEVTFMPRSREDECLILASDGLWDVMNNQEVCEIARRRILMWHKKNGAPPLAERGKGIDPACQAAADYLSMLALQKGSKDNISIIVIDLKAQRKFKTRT
T3 sequence (O49686 whole entry K59R/F159C): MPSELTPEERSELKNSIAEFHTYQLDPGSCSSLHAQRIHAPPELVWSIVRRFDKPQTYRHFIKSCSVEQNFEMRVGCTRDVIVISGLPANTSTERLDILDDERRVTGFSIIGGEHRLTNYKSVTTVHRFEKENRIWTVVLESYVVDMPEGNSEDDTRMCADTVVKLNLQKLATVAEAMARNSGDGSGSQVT
Outline: as §1

[4] = target: T4, PYR1 K59R F159M (Arabidopsis thaliana, UniProt O49686, F159M/K59R)
T4 construct: expressed in transfected cells; host or cells: S. cerevisiae Y190
Outline: as §1

[5] = target: T5, PYR1 K59R A89W (Arabidopsis thaliana, UniProt O49686, A89W/K59R)
T5 construct: expressed in transfected cells; host or cells: S. cerevisiae Y190 yeast two-hybrid reporter strain
Outline: as §1

[6] = target: T6, PYR1 K59R F108Q (Arabidopsis thaliana, UniProt O49686, F108Q/K59R)
T6 construct: expressed in transfected cells; host or cells: S. cerevisiae Y190 yeast two-hybrid reporter strain
Outline: as §1

[7] = target: T7, PYR1 K59R F108I (Arabidopsis thaliana, UniProt O49686, F108I/K59R)
T7 construct: expressed in transfected cells; host or cells: S. cerevisiae Y190 yeast two-hybrid reporter strain
Outline: as §1

[8] = target: T8, PYR1 K59R A160T (Arabidopsis thaliana, UniProt O49686, A160T/K59R)
T8 construct: expressed in transfected cells; host or cells: S. cerevisiae Y190
Outline: as §1

[9] = target: T9, PYR1 K59R M158L (Arabidopsis thaliana, UniProt O49686, K59R/M158L)
T9 construct: expressed in transfected cells; host or cells: S. cerevisiae Y190 two-hybrid reporter strain
Outline: as §1

[10] = target: T10, PYR1 K59R N167S (Arabidopsis thaliana, UniProt O49686, K59R/N167S)
T10 construct: expressed in transfected cells; host or cells: S. cerevisiae Y190 two-hybrid reporter strain
T10 sequence (O49686 whole entry K59R/N167S): as the sequence (O49686 whole entry K59R/F159C) above, with C159F, N167S counted along it
T10 sequence (Q9CAJ0 23-511 partner): as the sequence (Q9CAJ0 23-511) above
Outline: as §1

[11] = target: T11, PYR1 K59R V164H (Arabidopsis thaliana, UniProt O49686, K59R/V164H)
T11 construct: expressed in transfected cells; host or cells: S. cerevisiae Y190
Outline: as §1

[12] = target: T12, PYR1 K59R E141Q (Arabidopsis thaliana, UniProt O49686, E141Q/K59R)
T12 construct: expressed in transfected cells; host or cells: S. cerevisiae Y190 two-hybrid reporter strain
Outline: as §1

[13] = target: T13, PYR1 K59R T162Y (Arabidopsis thaliana, UniProt O49686, K59R/T162Y)
T13 construct: expressed in transfected cells; host or cells: S. cerevisiae Y190
T13 sequence (Q9CAJ0 23-511): as above
T13 sequence (O49686 whole entry K59R/T162Y): as the sequence (O49686 whole entry K59R/F159C) above, with C159F, T162Y counted along it
Outline: as §1

[14] = target: T14, PYR1 K59R N167T (Arabidopsis thaliana, UniProt O49686, K59R/N167T)
T14 construct: expressed in transfected cells; host or cells: S. cerevisiae Y190 two-hybrid reporter strain
Outline: as §1

[15] = target: T15, PYR1 K59R H115N (Arabidopsis thaliana, UniProt O49686, H115N/K59R)
T15 construct: expressed in transfected cells; host or cells: S. cerevisiae Y190 two-hybrid reporter strain
Outline: as §1

[16] = target: T16, PYR1 K59R A160C (Arabidopsis thaliana, UniProt O49686, A160C/K59R)
T16 construct: expressed in transfected cells; host or cells: S. cerevisiae Y190
T16 sequence (O49686 whole entry K59R/A160C): as the sequence (O49686 whole entry K59R/F159C) above, with C159F, A160C counted along it
T16 sequence (Q9CAJ0 23-511 partner): as the sequence (Q9CAJ0 23-511) above
Outline: as §1

[17] = target: T17, PYR1 K59R V164Y (Arabidopsis thaliana, UniProt O49686, K59R/V164Y)
T17 construct: expressed in transfected cells; host or cells: S. cerevisiae Y190 two-hybrid reporter strain
T17 sequence (O49686 whole entry K59R/V164Y): as the sequence (O49686 whole entry K59R/F159C) above, with C159F, V164Y counted along it
T17 sequence (Q9CAJ0 23-511, stated change not applied, further chain): as the sequence (Q9CAJ0 23-511) above
Outline: as §1

[18] = target: T18, PYR1 K59R V164S (Arabidopsis thaliana, UniProt O49686, K59R/V164S)
T18 construct: expressed in transfected cells; host or cells: S. cerevisiae Y190 two-hybrid reporter strain
Outline: as §1

[19] = target: T19, PYR1 K59R V164N (Arabidopsis thaliana, UniProt O49686, K59R/V164N)
T19 construct: expressed in transfected cells; host or cells: S. cerevisiae Y190 two-hybrid reporter strain
Outline: as §1

[20] = target: T20, PYR1 K59R A160S (Arabidopsis thaliana, UniProt O49686, A160S/K59R)
T20 construct: expressed in transfected cells; host or cells: S. cerevisiae Y190
Outline: as §1

[21] = target: T21, PYR1 K59R V164F (Arabidopsis thaliana, UniProt O49686, K59R/V164F)
T21 construct: expressed in transfected cells; host or cells: S. cerevisiae Y190
Outline: as §1

[22] = target: T22, PYR1 K59R E141L (Arabidopsis thaliana, UniProt O49686, E141L/K59R)
T22 construct: expressed in transfected cells; host or cells: S. cerevisiae Y190 two-hybrid reporter strain
Outline: as §1

[23] = target: T23, PYR1 K59R V164K (Arabidopsis thaliana, UniProt O49686, K59R/V164K)
T23 construct: expressed in transfected cells; host or cells: S. cerevisiae Y190
Outline: as §1

[24] = target: T24, PYR1 K59R I110M (Arabidopsis thaliana, UniProt O49686, I110M/K59R)
T24 construct: expressed in transfected cells; host or cells: S. cerevisiae Y190 two-hybrid reporter strain
Outline: as §1

[25] = target: T25, PYR1 K59R M158T (Arabidopsis thaliana, UniProt O49686, K59R/M158T)
T25 construct: expressed in transfected cells; host or cells: S. cerevisiae Y190 two-hybrid reporter strain
T25 sequence (Q9CAJ0 23-511): as above
T25 sequence (O49686 whole entry K59R/M158T): as the sequence (O49686 whole entry K59R/F159C) above, with M158T, C159F counted along it
Outline: as §1

[26] = target: T26, PYR1 K59R M158C (Arabidopsis thaliana, UniProt O49686, K59R/M158C)
T26 construct: expressed in transfected cells; host or cells: S. cerevisiae Y190 two-hybrid reporter strain
Outline: as §1

[27] = target: T27, PYR1 K59R E141F (Arabidopsis thaliana, UniProt O49686, E141F/K59R)
T27 construct: expressed in transfected cells; host or cells: S. cerevisiae Y190 two-hybrid reporter strain
Outline: as §1

[28] = target: T28, PYR1 K59R V164M (Arabidopsis thaliana, UniProt O49686, K59R/V164M)
T28 construct: expressed in transfected cells; host or cells: S. cerevisiae Y190
Outline: as §1

Measured: Threshold

T1 sequence (Q9CAJ0 23-511): as the sequence (Q9CAJ0 23-511) above
T1 sequence (O49686 whole entry K59R/F159T): as the sequence (O49686 whole entry K59R/F159C) above, with C159T counted along it

C#CCOc1ccc(CCNC(=O)C(OCC#C)c2ccc(Cl)cc2)cc1OC (stereo not shown) [Mandipropamid, mandipropamid]
100 µM: [1] | [2] | [3] | [4] | [5] | [6] | [7]

N#Cc1c(Cl)cccc1Cl [Dichlobenil, dichlobenil]
not listed: [1] | [2] | [3] | [4] | [5] | [6] | [7]
100 µM: all other assays above
